Laboratory results as given in patent publication US6958352B2, “Compounds for inhibiting insulin secretion and methods related thereto” (SmithKline Beecham Corporation, priority 2002, dated 2005).
Like-named read-outs stand apart in the source and are kept apart here. Each block holds one compound with its values, some of them ahead of it.

Key:
[1] = test system: Pancreatic islets of Langerhans; test: Glucose-stimulated insulin secretion (GSIS) by isolated pancreatic islets, insulin ELISA; assay type: cell-based, rat; conditions: concentration of 1 μM
Protocol: Pancreatic islets of Langerhans were isolated from adult male Sprague-Dawley rats using a standard collagenase infusion and digestion procedure as described in Example 16. Islets were cultured at 37° C. for 1-2 days in CMRL-1066 medium supplemented with 5.5 mM glucose, 10% fetal bovine serum, 100 U/ml penicillin and 100 μg/ml streptomycin, in a humidified atmosphere containing 5% CO2. Islets were manually picked and washed in Krebs Ringer Bicarbonate buffer (KRB: 134 mM NaCl, 4.7 mM KCl, 1.2 mM KH2PO4, 1.2 mM MgSO4, 1 mM CaCl2, 10 mM NaHCO3, pH 7.4) in preparation for measurement of glucose-stimulated insulin secretion (GSIS). […] Cell-conditioned media samples were then collected by centrifugation and their insulin content was determined using enzyme-linked immunosorbent assay (ELISA) kits (CrystalChem or ALPCO rat insulin ELISA) according to the kit supplier's instructions. Following treatment with a preferred compound, the concentration of insulin detected in the islet-conditioned medium was at least 1.5 times the insulin concentration detected in the medium conditioned by islets that were exposed to 8 mM glucose.
At a concentration of 1 μM, CGP37157 stimulated islet GSIS by 222 (±48) % relative to GSIS detected with 8 mM glucose. […]

[2] = test system: INS-1 rat insulinoma cells; test: Insulin secretion by INS-1 cells, insulin radioimmunoassay; assay type: cell-based; conditions: 8 mM glucose vs basal; FIG. 1
Protocol: INS-1 rat insulinoma cells were provided by Prof. Claes Wollheim, University Medical Centre, Geneva, Switzerland, and cultured at 37° C. in a humidified 5% CO2 environment in RPMI cell culture media (Gibco BRL, Gaithersburg, Md.) supplemented with 10% fetal bovine serum (Irvine Scientific, Irvine, Calif.), 2 mM L-glutamine, 100 U/ml penicillin, 100 μg/ml streptomycin, 10 mM HEPES, 1 mM sodium pyruvate and 50 μM β-mercaptoethanol (all reagents Sigma, St. Louis, Mo., unless otherwise noted).
INS-1 cells were seeded into 24-well plates containing RPMI media supplemented as described at 0.5×10^6 cells/well and cultured at 37° C., 5% CO2 for 2 days. Cells at or near confluence (0.7×10^6 cells/well) were rinsed with glucose-free KRH buffer (134 mM NaCl, 4.7 mM KCl, 1.2 mM KH2PO4, 1.2 mM MgSO4, 1.0 mM CaCl2, 10 mM HEPES-pH 7.4, 25 mM NaHCO3, 0.5% BSA), then incubated in the same buffer for 1 hr at 37° C. in a humidified 5% CO2/95% air atmosphere. […] Insulin concentrations in the supernatants were measured and normalized to cell number using an insulin-specific radioimmunoassay kit (ICN Biochemicals, Irvine, Calif.) according to the manufacturer's instructions.

[3] = test system: rat pancreatic islet cells; test: Insulin secretion by rat pancreatic islet cells (FIG. 2); assay type: cell-based; conditions: basal (5 mM) or supraphysiological (8 mM) glucose
[4] = biological target: T1, mitochondrial calcium/sodium antiporter (Rattus norvegicus, UniProt Q6AXS0); test: Inhibition of mitochondrial calcium/sodium antiporter activity (NaCl-induced mitochondrial calcium efflux, calcium green 5N fluorescence); assay type: cell-based; conditions: digitonin-permeabilized INS-1 cells, 20 mM NaCl
T1 sequence (Q6AXS0 1-585): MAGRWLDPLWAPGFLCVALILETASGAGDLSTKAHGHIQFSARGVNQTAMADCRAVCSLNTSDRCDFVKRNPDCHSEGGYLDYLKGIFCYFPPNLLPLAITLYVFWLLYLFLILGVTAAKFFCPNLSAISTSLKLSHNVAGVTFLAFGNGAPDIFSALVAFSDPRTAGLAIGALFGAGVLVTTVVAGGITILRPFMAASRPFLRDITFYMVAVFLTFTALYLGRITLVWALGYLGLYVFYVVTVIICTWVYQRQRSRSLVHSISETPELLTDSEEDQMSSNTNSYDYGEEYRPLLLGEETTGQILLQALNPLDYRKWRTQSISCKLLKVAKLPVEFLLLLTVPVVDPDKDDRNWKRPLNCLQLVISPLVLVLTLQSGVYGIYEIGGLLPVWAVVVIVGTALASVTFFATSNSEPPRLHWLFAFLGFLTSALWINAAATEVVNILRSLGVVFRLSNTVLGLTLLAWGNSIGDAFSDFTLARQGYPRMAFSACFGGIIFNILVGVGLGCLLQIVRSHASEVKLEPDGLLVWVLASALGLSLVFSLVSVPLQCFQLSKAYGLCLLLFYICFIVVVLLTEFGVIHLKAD
Protocol: INS-1 rat insulinoma cells (see Example 16) were harvested by trypsinization, washed and resuspended at 10×10^6 cells/ml in assay buffer (250 mM sucrose, 10 mM HEPES, 2.5 mM K2HPO4, 5 mM succinate, pH 7.4) containing 0.007% digitonin, 60 μM CaCl2 and 0.05 μM calcium green 5N (Molecular Probes, Inc., Eugene, Oreg.). After a five-minute calcium loading incubation, ruthenium red (1 μM; Sigma, St. Louis, Mo.) was added to block further calcium uptake by mitochondria. Cell suspensions were dispensed into 96-well plates (100 μl per well, 1×10^6 cells per well) and candidate agents (i.e., candidate mitochondrial calcium/sodium antiporter inhibitors) were added to some sets of triplicate wells at concentrations of 1, 10 or 100 μM, while other sets of wells provided appropriate control conditions (e.g., buffer and vehicle controls). Baseline fluorescence measurements were made using a multiwell plate fluorimeter (F-MAX™, Molecular Devices Corp., Sunnyvale, Calif.; or PolarStar™, BMG Labtechnologies, Inc., Durham, N.C.) according to the manufacturer's instructions. Calcium efflux from mitochondria was then induced by adding NaCl to all wells to achieve a final concentration of 20 mM, and the rate of change in fluorescence in each well was monitored […] for two minutes and quantified using software included with the plate reader.

[5] = test system: C57BLKs-db/db mice; test: Glucose tolerance in mutant db/db mice after oral administration; assay type: in vivo, mouse; conditions: 100 mg/kg orally one hour before 1 gm glucose/kg i.p.; relative to vehicle control; p<0.05
Source text: This Example illustrates the effects of a representative compound on glucose tolerance in an established animal model of type II diabetes mellitus, the db/db mutant mouse. As a brief background, the recessive db mutation has been localized to murine chromosome 4, and homozygous recessive (db/db) individuals are characterized by, inter alia, obesity, hyperphagia, transient increases in plasma insulin concentrations, hyperglycemia, abnormal immune and renal functions, diabetic neuropathy and myocardial disease (see, e.g., Hummel et al., 1966 Science 153:1127; Herberg et al., 1977 Metabolism 26:59; Leiter et al., 1981 Metabolism 30:554; Guenet et al., 1982 Mouse News Letter 67:30; Guenet et al., 1984 Mouse News Letter 70:95; Bray et al., 1971 Physiol. Rev. 51:598; Bailey et al., 1989 J. Endocrinol. 123:19-24; Bray et al., 1979 Physiol. Rev. 59:719; Sima et al., 1979 Lab. Invest. 40:627; Sima et al., 1978 Acta Nettropathol. […]
16o (dissolved in vehicle: 10% (v/v) EtOH, 10% (v/v) polyethylene glycol-400, 30% (v/v) propylene glycol, 50% (v/v) H2O) was administered orally at a dosage of 100 mg/kg body weight to eight-week old mutant C57BLKs-db/db mice (Harlan Bioproducts for Science, Inc., Indianapolis, Ind.). […] Glucose concentrations in each blood sample were determined using OneTouch® glucose test strips (LifeScan, Inc., Milpitas, Calif.) according to the manufacturer's instructions. […]

[6] = Table 3, more preferred compounds, read-out: IC50 ≦ 1 μM

Compound: O=C1CSC(c2ccccc2Cl)c2cc(Cl)ccc2N1 (centres unmarked) [CGP37157, 7-Chloro-5-(2-chlorophenyl)-1,5-dihydro-4,1-benzothiazepin-2(3H)-one]
stimulated islet GSIS relative to GSIS detected with 8 mM glucose [1]: 222 (±48) % | glucose stimulated insulin secretion by INS-1 cells [2]: enhanced glucose stimulated insulin secretion | glucose stimulated insulin secretion on rat pancreatic islet cells [3]: enhanced glucose stimulated insulin secretion

IC50 [4, 6]: ≤ 1 µM
Compound: COc1cc(C(=O)NCCSC(c2cc(Cl)ccc2N)C2CCCCC2)cc(OC)c1OC (centres unmarked) [Compound 16o]
peak blood glucose levels after the glucose bolus [5]: lower peak blood glucose levels | return of blood glucose to baseline [5]: returned to a lower baseline more rapidly

IC50 ([4]; Table 2, preferred compounds, read-out: IC50 ≦ 10 μM): ≤ 10 µM
Compound: COc1cc(C(=O)N2CCC(CSC(c3cc(Cl)ccc3N)C3CCCCC3)CC2)cc(OC)c1OC (centres unmarked) [Compound 41a]

IC50 [4, 6]: ≤ 1 µM
Compound: COc1cc(C(=O)N2CCC(CSC(c3cc(F)ccc3N)C3CCCCC3)CC2)cc(OC)c1OC (centres unmarked) [Compound 41b]
